According to patent US11731946B2, “Broad spectrum antivirulence, anti-persistence compounds” (priority 2017, dated 2023):

Experiments:
MvfR regulon [1] = assay: Quantification of pyocyanin (OD520nm of chloroform-extracted cultures); format: cell-based, P. aeruginosa; settings: Pseudomonas aeruginosa; for activity at 1 µM: read-out: pyocyanin @1 uM (%), compound at 1 uM; for activity at 10 µM: read-out: pyocyanin @10 uM (%), compound at 10 uM; for activity at 50 µM: read-out: pyocyanin @50 uM (%), compound at 50 uM; for IC50: read-out: IC50 pyocyanin (μM)
MvfR regulon [2] = assay: pqsA gene expression (pqsA-GFP reporter); format: cell-based, P. aeruginosa; settings: Pseudomonas aeruginosa; for activity at 10 µM: read-out: pqsA @10 uM (%), compound at 10 uM; for activity at 50 µM: read-out: pqsA @50 uM (%), compound at 50 uM
Description: Experiments were performed to identify compounds that inhibit the MvfR regulon without altering growth, ultimately attenuating P. aeruginosa infection. MvfR is a LysR-type transcriptional regulator that directs HAQs synthesis, including that of its ligands, 4-hydroxy-2-heptylquinoline (HHQ) and 3,4-dihydroxy-2-heptylquinoline (PQS).
MvfR promotes the production of HAQs by binding to and activating the pqs operon, which encodes enzymes for HAQ synthesis. Anthranilic acid (AA), derived from the phnAB, kynABU, and trpEG pathways, is the precursor for HAQs. pqsA encodes an anthranilate-coenzyme A ligase, which activates anthranilic acid and catalyzes the first committed step to HAQ production. The exact roles of PqsB and PqsC are unknown, though both show homology to acyl-carrier-proteins and both are required for HHQ and PQS production. […] The final gene of the operon, pqsE encodes for a putative hydrolase, and while the protein is not required for the synthesis of HAQs, it is necessary for pyocyanin production.
Nanomolar levels of most of these MvfR antagonists impeded the activity of MvfR and in consequence the MvfR virulence regulated ACRP functions, including: (1) the production of the important pro-acute P. aeruginosa virulence factor pyocyanin (see e.g., FIG. 9A) the efficacy of two of these potent inhibitors, D57 and D88, was also confirmed by testing many different MDR P. aeruginosa clinical isolates (see e.g., FIG. 11A-11B), providing further confidence of their inhibitory potency; (2) the expression of the genes that encode the enzymes catalyzing the synthesis of both pro-acute and pro-persistence MvfR-regulated virulence molecules, 4-hydroxyl-2-alkyl-quinolines (HAQs) and 2-aminoacetophenon (2-AA), as assessed by pqsAGFP reporter gene expression (see e.g., FIG. 9B) and HAQ production showing the levels of MvfR inducers/ligands HHQ and PQS as well as of the molecules critical for biofilm and Antibiotic tolerant/persiters cells formation HQNO and 2-AA (see e.g., FIG. 9C); (3) AT/P cell formation (see e.g., FIGS. 11A, 12A); (4) biofilm formation (see e.g., FIG. 12B); and (5) biofilm dispersal of preformed biofilm by potentiating antibiotic action (see e.g., FIG. 11B).

Structure (SMILES) | activity at 1 µM (MvfR regulon [1]) [%] | activity at 10 µM (MvfR regulon [1]) [%] | activity at 50 µM (MvfR regulon [1]) [%] | activity at 10 µM (MvfR regulon [2]) [%] | activity at 50 µM (MvfR regulon [2]) [%] | IC50 (MvfR regulon [1]) [µM] | IC50 (MvfR regulon [2]; read-out: IC50 pqsA (μM)) [µM]
N#Cc1ccc(NC(=O)CC(=O)Nc2cccc(C#N)c2)cc1 [Compound 90] | 91.8 | 88.5 | 49.4 | 97.2 | – | – | –
Cc1cc(F)ccc1NCC(=O)NCC(F)(F)F [Compound 29] | – | – | 110 | – | 70 | – | –
N#Cc1ccc(NC(=O)CC(=O)Nc2cccc(Cl)c2)cc1 [Compound 86] | 83.2 | 45.4 | 12.5 | 59.8 | – | 1.54 | –
N#Cc1ccc(NC(=O)C(F)(F)C(=O)Nc2ccc(C#N)cc2)cc1 [Compound 112] | 101 | 87.1 | 93.6 | 95.4 | 95.1 | – | –
N#Cc1ccc(NC(=O)CC(=O)N2CCc3cc(C#N)ccc32)cc1 [Compound 97] | 99.9 | 74.5 | 82.3 | 99.7 | – | – | –
N#Cc1ccc(NC(=O)/C=C/C(=O)Nc2ccc(F)cc2)cc1 [Compound 101] | – | – | 87.8 | 96.3 | – | – | –
CCc1ccccc1NCC(=O)Nc1ccc(C#N)cc1 [Compound 15] | – | – | 97.3 | – | 92 | – | –
Cc1cc(F)ccc1NCC(=O)Nc1cccc([N+](=O)[O-])c1 [Compound 26] | – | – | 85.2 | – | 76.5 | – | –
CC(=O)c1ccccc1NC(=O)CNc1ccc(F)cc1C [Compound 42] | – | – | 91.4 | – | 94.2 | – | –
N#Cc1ccc(NC(=O)C[C@H](Nc2ccc(Oc3ccccc3)cc2)C(F)(F)F)cc1 (racemic) [Compound 108] | 91.9 | 76.8 | 91 | 87 | 88.4 | – | –
N#Cc1ccc(NC(=O)CNc2ccc(Cl)cc2)cc1 [Compound 28] | – | – | 43.2 | – | 17.7 | 20.4 | 24.6
Cc1cc(F)ccc1NCC(=O)Nc1ccccc1Br [Compound 14] | – | – | 101 | – | 96.2 | – | –
O=C(CC(=O)Nc1ccc(Oc2ccccc2)cc1)Nc1ccc(F)cc1 [Compound 83] | 44.7 | 41.3 | 33.5 | 27.7 | – | 0.83 | –
Nc1cc([N+](=O)[O-])ccc1NC(=O)CC(=O)Nc1ccc(Oc2ccccc2)cc1 [Compound 75] | – | – | 6.13 | 9.83 | – | – | –
CC(=O)c1ccc(NC(=O)CNc2ccc(F)cc2C)cc1 [Compound 20] | – | – | 102 | – | 97.7 | – | –
Cc1cc(F)ccc1NCC(=O)Nc1c(F)cccc1F [Compound 22] | – | – | 89.9 | – | 89.2 | – | –
Cc1cc(F)ccc1NCC(=O)Nc1cccc(Cl)c1 [Compound 34] | – | – | 96.1 | – | 70.9 | – | –
O=C(CC(=O)Nc1ccc(Oc2ccccc2)cc1)Nc1ccc(I)cc1 [Compound 74] | – | – | 71.8 | 86 | 81.2 | – | –
N#Cc1ccc(NC(=O)CC(=O)Nc2cccc(Br)c2)cc1 [Compound 56] | 79.9 | 41.4 | 17.2 | 64.2 | – | – | –
CNC(=O)NC(=O)CNc1ccc(F)cc1C [Compound 23] | – | – | 101 | – | 97 | – | –
CC(F)(C(=O)Nc1ccc(C#N)cc1)C(=O)Nc1ccc(C#N)cc1 [Compound 109] | 98.6 | 78.2 | 51.5 | 87 | 84.9 | – | –
Cc1cccc(NC(=O)CC(=O)Nc2ccc(C#N)cc2)c1 [Compound 85] | 94 | 75.3 | 49.7 | 84.8 | – | – | –
N#Cc1ccc(NC(=O)C2(C(=O)Nc3ccc(C#N)cc3)CC2)cc1 [Compound 102] | – | – | 96.8 | 93.4 | – | – | –
